Measured values reported in paper PMC12584836, “Rubus caesius leaves and stems in antiaging skin care products: antityrosinase, anticollagenase, antimicrobial activity, and transdermal distribution of main phenolic acids” (Pharmaceutical Biology, 2025).
Marks after values point to notes of the source that are not given here.

What was measured:
[1] = Skin permeation from hydrogels in Franz diffusion cells; type: in vitro ADME; settings: porcine skin
Method: Permeation experiments were conducted using Franz diffusion cells (Phoenix DB-6, ABL&E-JASCO, Wien, Austria), with a donor chamber area of 1 cm^2 and 10 mL acceptor chamber filled with phosphate-buffered saline (PBS, pH 7.4). The system was maintained at 37.0 ± 0.5 °C, and the acceptor solutions were continuously stirred.
Skin samples were wrapped in aluminum foil, frozen at −20 °C for no longer than three months. […] Skin impedance was measured by immersing the probe tips in the donor and acceptor chambers filled with PBS.
One gram of each hydrogel was applied to the donor chamber. All chambers were sealed with plastic stoppers to minimize evaporation. […] Phenolic acid concentrations were determined by HPLC.
J-shaped profiles and the following equations were used: (1) A=JSS(t−LT) where A is the cumulative amount permeated (μg·cm^−2) of tested phenolic acids permeating into the receptor compartment; JSS is the steady-state flux (μg·cm^−2·h^−1); t is the time (h), and LT is the lag time (h).
The steady-state flux was estimated from the slope of the linear portion of the plot of cumulative mass in the acceptor phase over time. The lag time (LT) was determined from the x-intercept of the linear portion of the plot of cumulative mass in the acceptor phase over time and was used to calculate the […] (KP) as follows: (2) KP=JSS/C where C is the concentration in the donor phase.

[2] = Skin accumulation after 24 h permeation; type: in vitro ADME; settings: after 24-h penetration; HL-E application; porcine skin
Method: Following incubation, samples were homogenized (IKA®T18 digital ULTRA TURRAX, Germany) for 3 min and centrifuged at 3500 rpm for 5 min. The resulting supernatants were analyzed by HPLC spectrophotometry, with methanol used as a blank. Accumulated phenolic acids were expressed as amount (µg) per gram of skin tissue (µg·g skin^−1).

[3] = ABTS radical scavenging assay; type: biochemical
Method: (§1) Water and ethanol extracts from Rubus caesius leaves and stems were freshly prepared by dissolving the dry extract in water. The samples were tested at concentrations ranging from 1 to 1000 µg/mL. Ascorbic acid was used as the reference standard in both assays. All measurements were performed using a 96-well microplate reader (Epoch, BioTek System, Winooski, VT, USA). IC50 values for each extract were calculated using the GraphPad Prism 9 software (version 9.0.0, GraphPad Software, San Diego, CA, USA). Each test was performed in triplicate and repeated three times (n = 9).
The antioxidant activity of the Rubus caesius extracts was determined using ABTS radical scavenging method as described by Thring et al. ([2009]), with minor modifications according to Hering et al. ([2025]). The reaction mixture containing extracts or standard were incubated in the dark for 20 min at 30 °C. After incubation, absorbance was measured at 750 nm. The negative control sample consisted of the reaction mixture and water instead of extract or standard.

[4] = Molybdenum reduction (phosphomolybdenum) assay; type: biochemical
Method: as §1
The total reducing power of water and ethanol extracts from Rubus caesius was estimated according to the phosphomolybdenum method described by Prieto et al. ([1999]), with modifications by Hering et al. ([2025]). The samples (extract or standard) were mixed with the reagent solution and incubated at 90 °C for 90 min. After cooling, 250 µL of each reaction mixture was transferred to a 96-well microplate reader (Epoch, BioTek System, Winooski, VT, USA), and absorbance was measured at 700 nm. The negative control consisted of the reaction mixture and water.

[5] = biological target: Collagenase from Clostridium histolyticum; assay: Collagenase inhibition assay (FALGPA substrate); type: biochemical
Method: Preparation of the extracts and calculation of IC50 values were carried out as described in the Antioxidant tests section. The effect of Rubus caesius extracts on collagenase and tyrosinase activity was estimated using the spectrophotometric method in a 96-well microplate reader (Epoch, BioTek System, Winooski, VT, USA).
The addition of the substrate started the reaction. Changes in absorbance were monitored every 20 s for a total of 20 min. The blank sample contained buffer, substrate, and the appropriate concentration of extract or standard. The negative control sample contained water instead of extract or standard. All tests were performed in triplicate and repeated three times (n = 9).
The effect of Rubus caesius extracts on collagenase activity was assessed based on the method described by Thring et al. ([2009]), with modifications introduced by Hering et al. ([2023]). FALGPA was used as the substrate, and oleanolic acid served as the positive control. Reaction mixtures containing the extract (0–400 µg/mL) were pre-incubated for 15 min. The reaction was initiated by the addition of 0.8 mM FALGPA, and absorbance was continuously measured at 335 nm. The reaction buffer was composed of tricine (50 mM, pH 7.5) with 400 mM NaCl and 10 mM CaCl2.

Structure (SMILES)	Phenolic acids concentration in the acceptor fluid (cumulative mass) ([1]; from hydrogel HL-E, 3 h)	Phenolic acids concentration in the acceptor fluid (cumulative mass) ([1]; from hydrogel HL-E, 5 h)	Phenolic acids concentration in the acceptor fluid (cumulative mass) ([1]; from hydrogel HL-E, 8 h)	Phenolic acids concentration in the acceptor fluid (cumulative mass) ([1]; from hydrogel HL-E, 24 h)	D·10^4, diffusion coefficient ([1]; from hydrogel HL-E) [cm^2/h]	JSS, steady-state flux ([1]; from hydrogel HL-E) [µg/cm^2·h]	LT, lag time ([1]; from hydrogel HL-E) [h]	Q%24h, percentage of applied dose in acceptor phase after 24 h ([1]; from hydrogel HL-E) [%]	Phenolic acids concentration in the acceptor fluid (cumulative mass) ([1]; from hydrogel HS-E, 8 h)	Phenolic acids concentration in the acceptor fluid (cumulative mass) ([1]; from hydrogel HS-E, 24 h)	Q%24h, percentage of applied dose in acceptor phase after 24 h ([1]; from hydrogel HS-E) [%]	other results
O=C(O)c1cc(O)c(O)c(O)c1 [Gallic acid, gallic acid]	6.18 ± 0.35^a µg/cm^2	10.24 ± 0.97^a µg/cm^2	16.09 ± 1.19^a µg/cm^2	49.62 ± 2.18^a µg/cm^2	25.73 ± 1.64	2.08 ± 0.08	0.16 ± 0.02	5.78 ± 0.25	4.69 ± 0.19^b µg/cm^2	7.19 ± 0.47^b µg/cm^2	4.78 ± 0.35	Phenolic acids concentration in the acceptor fluid (cumulative mass) ([1]; from hydrogel HL-E, 1 h): 3.64 ± 0.12^a µg/cm^2; Phenolic acids concentration in the acceptor fluid (cumulative mass) ([1]; from hydrogel HL-E, 2 h): 4.54 ± 0.47^a µg/cm^2; Phenolic acids concentration in the acceptor fluid (cumulative mass) ([1]; from hydrogel HL-E, 24 h, listed as gallic acid): 49.62 ± 2.18 µg/cm^2; Q%24h, percentage of applied dose in acceptor phase after 24 h ([1]; from hydrogel HL-E, listed as gallic acid): 5.78%; Phenolic acids concentration in the acceptor fluid (cumulative mass) ([1]; from hydrogel HS-E, 5 h): 3.95 ± 0.18^b µg/cm^2; D·10^4, diffusion coefficient ([1]; from hydrogel HS-E): 2.01 ± 0.09 cm^2/h; JSS, steady-state flux ([1]; from hydrogel HS-E): 0.88 ± 0.04 µg/cm^2·h; LT, lag time ([1]; from hydrogel HS-E): 2.08 ± 0.09 h; Accumulation of phenolic acid in the skin [2]: 70.62 ± 4.06 µg/g skin
COc1cc(C(=O)O)ccc1O [Vanillic acid, vanillic acid]	0.49 ± 0.25^a µg/cm^2	1.76 ± 0.82^a µg/cm^2	3.92 ± 1.06^a µg/cm^2	15.61 ± 2.42^a µg/cm^2	2.68 ± 0.19	0.54 ± 0.03	1.55 ± 0.13	4.77 ± 0.29	–	0.95 ± 0.15^b µg/cm^2	3.28 ± 0.52	Q%24h, percentage of applied dose in acceptor phase after 24 h ([1]; from hydrogel HL-E, listed as vanillic acid): 4.77%
O=C(O)c1ccc(O)c(O)c1 [Protocatechuic acid, protocatechuic acid]	5.86 ± 0.28^a µg/cm^2	8.59 ± 0.65^a µg/cm^2	11.94 ± 1.91^a µg/cm^2	37.95 ± 2.96^a µg/cm^2	6.57 ± 0.77	2.10 ± 0.17	0.63 ± 0.08	4.49 ± 0.35	3.84 ± 0.18^b µg/cm^2	4.57 ± 0.30^b µg/cm^2	2.45 ± 0.16	Phenolic acids concentration in the acceptor fluid (cumulative mass) ([1]; from hydrogel HL-E, 2 h): 3.28 ± 0.31^a µg/cm^2; Phenolic acids concentration in the acceptor fluid (cumulative mass) ([1]; from hydrogel HL-E, 24 h, listed as protocatechuic acid): 37.95 ± 2.96 µg/cm^2; Q%24h, percentage of applied dose in acceptor phase after 24 h ([1]; from hydrogel HL-E, listed as protocatechuic acid): 4.49%; Phenolic acids concentration in the acceptor fluid (cumulative mass) ([1]; from hydrogel HS-E, 5 h): 3.04 ± 0.03^a µg/cm^2; D·10^4, diffusion coefficient ([1]; from hydrogel HS-E): 1.91 ± 0.09 cm^2/h; JSS, steady-state flux ([1]; from hydrogel HS-E): 0.73 ± 0.04 µg/cm^2·h; LT, lag time ([1]; from hydrogel HS-E): 2.19 ± 0.10 h; Accumulation of phenolic acid in the skin [2]: 61.46 ± 12.57 µg/g skin
O=C(O)/C=C/c1ccc(O)cc1 [Coumaric acid, coumaric acid]	4.97 ± 0.09^a µg/cm^2	7.04 ± 0.75^a µg/cm^2	8.95 ± 1.00^a µg/cm^2	12.45 ± 0.26^a µg/cm^2	9.27 ± 0.73	1.35 ± 0.17	–	2.62 ± 0.05	5.10 ± 0.11^b µg/cm^2	5.93 ± 0.08^b µg/cm^2	5.37 ± 0.07	–
O=C1O[C@H]([C@@H](O)CO)C(O)=C1O [Ascorbic acid, ascorbic acid]	–	–	–	–	–	–	–	–	–	–	–	ABTS radical scavenging IC50 [3]: 14.77 ± 0.5 µg/mL; Molybdenum reduction IC50 [4]: 78.25 ± 1.25 µg/mL
O=C(O)/C=C/c1ccc(O)c(O)c1 [Caffeic acid, caffeic acid]	2.58 ± 0.20^a µg/cm^2	2.84 ± 0.07^a µg/cm^2	3.30 ± 0.13^a µg/cm^2	7.83 ± 0.83^a µg/cm^2	3.41 ± 0.28	0.84 ± 0.02	1.22 ± 0.09	0.68 ± 0.07	–	not permeating at all	–	–
CC1(C)CC[C@]2(C(=O)O)CC[C@]3(C)C(=CC[C@@H]4[C@@]5(C)CC[C@H](O)C(C)(C)[C@@H]5CC[C@]43C)[C@@H]2C1 [oleanolic acid]	–	–	–	–	–	–	–	–	–	–	–	IC50 of collagenase inhibition [5]: 31.72 ± 0.65 µg/mL
